The target in data set [1] is GABA-A receptor; anion channel (Rattus norvegicus) (UniProt O09028+P15431+P18506+P18508+P19969+P20236+P23574+P23576+P28471+P28473+P30191+P62813+P63079+P63138+Q91ZM7+Q9ES14). The conditions noted are these: Compound concentration 10.0 uM.
Data set [2] deals with Serine/threonine-protein kinase MARK1 (Homo sapiens) (UniProt Q9P0L2). The note with it: Compound concentration 1000.0 nM.
Data set [3] concerns the target Acetylcholinesterase (Homo sapiens) (UniProt P22303). As to the kind of experiment: ACHE/H Cerep selectivity data (BI). The conditions noted are these: Compound concentration 20.0 uM.
For data set [4], the target named is Adenosine receptor A2a (Homo sapiens) (UniProt P29274). Nature of the data set: A2A/H Cerep selectivity data (BI). The conditions noted are these: filed as antagonist, Compound concentration 20.0 uM.
Data set [5] has as its target Cyclin-dependent kinase 5/CDK5 activator 1 (Homo sapiens) (UniProt Q00535+Q15078). Nature of the data set: CDK5/P35 Invitrogen selectivity data (BI). In kind it is protein-complex assay. The conditions noted are these: Compound concentration 3.0 uM.
For data set [6], the target named is Melanocyte-stimulating hormone receptor (Mus musculus) (UniProt Q01727). Nature of the data set: MC1_AGON Cerep selectivity data (BI). The conditions noted are these: filed as agonist, Compound concentration 20.0 uM.
Data set [7] deals with T1, Ephrin type-B receptor 1 (Homo sapiens) (UniProt P54762).
T1 sequence (whole entry): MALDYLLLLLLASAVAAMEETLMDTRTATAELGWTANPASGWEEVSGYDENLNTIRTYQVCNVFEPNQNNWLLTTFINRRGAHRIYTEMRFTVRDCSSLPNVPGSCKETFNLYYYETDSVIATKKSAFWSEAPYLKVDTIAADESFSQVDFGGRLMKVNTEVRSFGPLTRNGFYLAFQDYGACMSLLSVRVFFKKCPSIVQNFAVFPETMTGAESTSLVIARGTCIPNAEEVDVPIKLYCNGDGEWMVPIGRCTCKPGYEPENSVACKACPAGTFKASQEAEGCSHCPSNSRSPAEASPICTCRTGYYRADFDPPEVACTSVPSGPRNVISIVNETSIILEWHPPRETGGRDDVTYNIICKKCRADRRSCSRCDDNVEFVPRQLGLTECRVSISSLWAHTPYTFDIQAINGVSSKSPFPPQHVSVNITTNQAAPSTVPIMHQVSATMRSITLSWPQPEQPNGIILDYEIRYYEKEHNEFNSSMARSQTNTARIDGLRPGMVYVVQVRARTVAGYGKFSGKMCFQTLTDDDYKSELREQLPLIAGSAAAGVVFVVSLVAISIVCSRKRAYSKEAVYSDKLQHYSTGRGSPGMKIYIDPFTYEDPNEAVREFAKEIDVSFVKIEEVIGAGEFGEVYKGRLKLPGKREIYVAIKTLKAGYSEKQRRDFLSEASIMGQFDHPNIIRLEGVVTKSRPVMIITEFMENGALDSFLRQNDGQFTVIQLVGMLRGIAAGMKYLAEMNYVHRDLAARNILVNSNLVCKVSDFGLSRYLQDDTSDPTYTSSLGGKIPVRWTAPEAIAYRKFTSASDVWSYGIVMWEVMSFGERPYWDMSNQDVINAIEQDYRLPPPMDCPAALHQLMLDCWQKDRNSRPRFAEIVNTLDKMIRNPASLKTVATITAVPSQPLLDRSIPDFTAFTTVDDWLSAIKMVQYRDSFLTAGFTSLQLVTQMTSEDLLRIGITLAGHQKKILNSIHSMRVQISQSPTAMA
As to the kind of experiment: EPHB1 Invitrogen selectivity data (BI). The conditions noted are these: Compound concentration 3.0 uM.

The target of data set [8] is Epithelial discoidin domain-containing receptor 1 (Homo sapiens) (UniProt Q08345). As to the kind of experiment: DDR1 Invitrogen selectivity data (BI). The note with it: Compound concentration 3.0 uM.
Chain of Epithelial discoidin domain-containing receptor 1 (Homo sapiens) (Q08345 whole entry, the tested form may be a part): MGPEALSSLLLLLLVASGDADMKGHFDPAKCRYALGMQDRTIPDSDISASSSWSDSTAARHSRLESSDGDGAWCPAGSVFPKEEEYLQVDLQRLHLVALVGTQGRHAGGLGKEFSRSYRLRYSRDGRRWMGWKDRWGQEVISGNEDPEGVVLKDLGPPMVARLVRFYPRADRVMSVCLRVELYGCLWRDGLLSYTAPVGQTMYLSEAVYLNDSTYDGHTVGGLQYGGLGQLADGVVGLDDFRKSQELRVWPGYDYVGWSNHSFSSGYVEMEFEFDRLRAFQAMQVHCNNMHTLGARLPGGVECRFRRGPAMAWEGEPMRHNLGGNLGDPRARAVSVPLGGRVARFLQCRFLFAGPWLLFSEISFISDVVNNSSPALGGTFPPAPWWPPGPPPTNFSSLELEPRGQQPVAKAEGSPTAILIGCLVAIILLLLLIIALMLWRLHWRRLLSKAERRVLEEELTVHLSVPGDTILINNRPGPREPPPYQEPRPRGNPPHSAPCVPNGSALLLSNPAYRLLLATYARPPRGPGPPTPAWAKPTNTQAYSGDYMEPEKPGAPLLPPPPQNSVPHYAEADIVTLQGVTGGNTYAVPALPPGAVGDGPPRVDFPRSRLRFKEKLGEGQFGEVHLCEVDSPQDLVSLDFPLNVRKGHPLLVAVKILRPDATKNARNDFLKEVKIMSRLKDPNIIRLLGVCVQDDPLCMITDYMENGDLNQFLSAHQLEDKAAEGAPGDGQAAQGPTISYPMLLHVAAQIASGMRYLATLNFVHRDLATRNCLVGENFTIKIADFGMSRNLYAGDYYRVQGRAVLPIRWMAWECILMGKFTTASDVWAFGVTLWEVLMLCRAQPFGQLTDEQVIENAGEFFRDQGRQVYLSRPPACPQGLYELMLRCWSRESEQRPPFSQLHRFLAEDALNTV
Data set [9] has as its target Beta-2 adrenergic receptor (Homo sapiens) (UniProt P07550). As to the kind of experiment: BETA2/HUM Cerep selectivity data (BI). The note with it: filed as antagonist, Compound concentration 20.0 uM.
The target in data set [10] is RAC-beta serine/threonine-protein kinase (Homo sapiens) (UniProt P31751). As to the kind of experiment: AKT2 Invitrogen selectivity data (BI). The conditions noted are these: Compound concentration 3.0 uM.
Data set [11] addresses D(3) dopamine receptor (Homo sapiens) (UniProt P35462). As to the kind of experiment: D3/H Cerep selectivity data (BI). The conditions noted are these: Compound concentration 20.0 uM.
For data set [12], the target named is Proto-oncogene tyrosine-protein kinase Src (Homo sapiens) (UniProt P12931). As to the kind of experiment: SRC Invitrogen selectivity data (BI). The note with it: Compound concentration 3.0 uM.
Data set [13] has as its target Tyrosine-protein kinase FRK (Homo sapiens) (UniProt P42685). As to the kind of experiment: FRK Invitrogen selectivity data (BI). The note with it: Compound concentration 3.0 uM.
The target of data set [14] is Gamma-aminobutyric acid receptor subunit alpha-1 (Homo sapiens) (UniProt P14867). As to the kind of experiment: GABAA1(H) Cerep selectivity data (BI). The conditions noted are these: filed as agonist, Compound concentration 20.0 uM.
Chain of Gamma-aminobutyric acid receptor subunit alpha-1 (Homo sapiens) (P14867 whole entry): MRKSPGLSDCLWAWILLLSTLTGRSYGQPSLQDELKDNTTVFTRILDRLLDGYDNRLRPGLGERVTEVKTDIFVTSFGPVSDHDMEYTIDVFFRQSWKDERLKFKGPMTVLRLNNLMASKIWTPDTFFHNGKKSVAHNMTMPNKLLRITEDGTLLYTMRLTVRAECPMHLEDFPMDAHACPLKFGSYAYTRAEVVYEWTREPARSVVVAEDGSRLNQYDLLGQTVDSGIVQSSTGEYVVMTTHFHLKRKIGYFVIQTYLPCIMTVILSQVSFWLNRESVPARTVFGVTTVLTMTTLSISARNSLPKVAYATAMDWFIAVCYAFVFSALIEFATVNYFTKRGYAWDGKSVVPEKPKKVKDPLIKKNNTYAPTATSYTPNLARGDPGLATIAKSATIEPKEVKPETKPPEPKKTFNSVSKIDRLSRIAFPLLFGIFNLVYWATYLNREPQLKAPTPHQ
The target in data set [15] is Kappa-type opioid receptor (Homo sapiens) (UniProt P41145). Nature of the data set: KAPPA/HU Eurofins-Panlabs selectivity data (BI). The conditions noted are these: Compound concentration 10.0 uM.
Data set [16] addresses Glycine receptor subunit alpha-1 (Rattus norvegicus) (UniProt P07727). As to the kind of experiment: GLYSTRYANTAG Cerep selectivity data (BI). The conditions noted are these: filed as antagonist, Compound concentration 20.0 uM.
The target in data set [17] is MAO-A (amine oxidase [flavin-containing] A) (Rattus norvegicus, UniProt P21396). Nature of the data set: MAO-A_ANTAG Cerep selectivity data (BI). The note with it: compound concentration 20 uM, read-out: % Ctrl. More on the design: mode of action antagonist; scale not given: the % may be the effect or the level left.
Data set [18] concerns the target Serine/threonine-protein kinase B-raf (Homo sapiens) (UniProt P15056). As to the kind of experiment: BRAF Invitrogen selectivity data (BI). The conditions noted are these: Compound concentration 3.0 uM.
Data set [19] has as its target Vascular endothelial growth factor receptor 1 (Homo sapiens) (UniProt P17948). As to the kind of experiment: FLT-1(VEGFR1)_CE Cerep selectivity data (BI). The conditions noted are these: Compound concentration 20.0 uM.
The target in data set [20] is Neuronal acetylcholine receptor; alpha4/beta2 (Homo sapiens) (UniProt P17787+P43681). Nature of the data set: N_NEURO_A4B2 Cerep selectivity data (BI). Type of data set: protein-complex assay. The conditions noted are these: filed as agonist, Compound concentration 20.0 uM.
Data set [21] has as its target T2, Testis-specific serine/threonine-protein kinase 3 (Homo sapiens) (UniProt Q96PN8).
T2 sequence (whole entry): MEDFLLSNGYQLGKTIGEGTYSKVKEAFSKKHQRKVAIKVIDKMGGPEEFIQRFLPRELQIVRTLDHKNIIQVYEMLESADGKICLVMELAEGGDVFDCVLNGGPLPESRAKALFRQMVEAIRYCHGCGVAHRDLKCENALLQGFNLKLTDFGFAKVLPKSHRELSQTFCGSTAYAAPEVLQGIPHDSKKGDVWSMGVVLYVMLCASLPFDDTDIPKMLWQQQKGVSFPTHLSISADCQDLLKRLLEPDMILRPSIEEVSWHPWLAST
Nature of the data set: STK22D Invitrogen selectivity data (BI). The conditions noted are these: Compound concentration 3.0 uM.

Data set [22] has as its system Cricetinae. Nature of the data set: ML2(MT3) Cerep selectivity data (BI). The note with it: Compound concentration 20.0 uM.
Data set [23] concerns the target Insulin-like growth factor 1 receptor (Homo sapiens) (UniProt P08069). Nature of the data set: IGF1R Invitrogen selectivity data (BI). The conditions noted are these: Compound concentration 3.0 uM.
In data set [24] the target is Mu-type opioid receptor (Homo sapiens) (UniProt P35372). Nature of the data set: MU/HU Eurofins-Panlabs selectivity data (BI). The conditions noted are these: Compound concentration 10.0 uM.
Data set [25] has as its target Macrophage-stimulating protein receptor (Homo sapiens) (UniProt Q04912). As to the kind of experiment: MST1R Invitrogen selectivity data (BI). The conditions noted are these: Compound concentration 3.0 uM.
In data set [26] the target is Tyrosine-protein kinase ABL1 (Homo sapiens) (UniProt P00519). Nature of the data set: ABL1 Invitrogen selectivity data (BI). The conditions noted are these: Compound concentration 3.0 uM.
Data set [27] concerns the target Glycogen synthase kinase-3 beta (Homo sapiens) (UniProt P49841). As to the kind of experiment: GSK3B Invitrogen selectivity data (BI). The conditions noted are these: Compound concentration 3.0 uM.

The structures appear in SMILES notation.

We go through two compounds from ChEMBL document CHEMBL4507276 (2021).

Chain of Macrophage-stimulating protein receptor (Homo sapiens) (Q04912 25-304 limits assumed): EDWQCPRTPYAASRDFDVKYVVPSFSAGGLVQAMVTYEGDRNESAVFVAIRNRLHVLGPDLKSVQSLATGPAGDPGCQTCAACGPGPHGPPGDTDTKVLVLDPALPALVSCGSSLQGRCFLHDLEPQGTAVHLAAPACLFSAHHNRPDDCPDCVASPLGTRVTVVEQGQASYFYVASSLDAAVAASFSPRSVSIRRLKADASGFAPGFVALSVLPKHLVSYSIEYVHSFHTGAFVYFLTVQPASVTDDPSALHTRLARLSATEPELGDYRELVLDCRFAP
Chain of Macrophage-stimulating protein receptor (Homo sapiens) (Q04912 310-1400 limits assumed): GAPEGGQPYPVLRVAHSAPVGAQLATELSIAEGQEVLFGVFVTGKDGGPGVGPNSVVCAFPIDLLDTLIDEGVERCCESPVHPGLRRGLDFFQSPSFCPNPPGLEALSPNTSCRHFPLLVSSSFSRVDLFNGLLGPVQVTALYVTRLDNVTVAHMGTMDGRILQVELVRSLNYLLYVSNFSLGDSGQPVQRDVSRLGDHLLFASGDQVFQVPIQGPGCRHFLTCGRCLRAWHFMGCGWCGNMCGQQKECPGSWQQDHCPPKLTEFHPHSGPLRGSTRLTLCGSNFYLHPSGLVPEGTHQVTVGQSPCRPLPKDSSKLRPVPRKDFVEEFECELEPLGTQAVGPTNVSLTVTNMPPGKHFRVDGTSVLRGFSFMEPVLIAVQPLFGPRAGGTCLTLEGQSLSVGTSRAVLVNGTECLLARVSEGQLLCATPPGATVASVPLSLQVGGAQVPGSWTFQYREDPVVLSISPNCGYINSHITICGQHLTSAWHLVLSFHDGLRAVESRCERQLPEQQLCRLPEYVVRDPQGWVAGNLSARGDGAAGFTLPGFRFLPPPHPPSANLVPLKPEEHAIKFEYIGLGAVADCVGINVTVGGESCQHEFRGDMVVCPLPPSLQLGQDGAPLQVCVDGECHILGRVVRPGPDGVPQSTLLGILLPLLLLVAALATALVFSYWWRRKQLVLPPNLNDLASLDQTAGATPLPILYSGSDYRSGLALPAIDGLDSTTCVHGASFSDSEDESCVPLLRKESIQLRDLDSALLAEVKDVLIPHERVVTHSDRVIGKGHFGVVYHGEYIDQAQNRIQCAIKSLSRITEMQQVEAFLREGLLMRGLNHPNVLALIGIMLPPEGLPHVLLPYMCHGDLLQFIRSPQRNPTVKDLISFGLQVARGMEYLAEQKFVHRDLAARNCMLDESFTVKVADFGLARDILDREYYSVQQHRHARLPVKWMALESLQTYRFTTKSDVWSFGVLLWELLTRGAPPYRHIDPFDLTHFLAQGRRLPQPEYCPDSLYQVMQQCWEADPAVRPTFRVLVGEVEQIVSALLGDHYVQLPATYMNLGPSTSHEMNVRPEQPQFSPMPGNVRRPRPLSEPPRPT
Chain of Serine/threonine-protein kinase MARK1 (Homo sapiens) (Q9P0L2 whole entry, looked up): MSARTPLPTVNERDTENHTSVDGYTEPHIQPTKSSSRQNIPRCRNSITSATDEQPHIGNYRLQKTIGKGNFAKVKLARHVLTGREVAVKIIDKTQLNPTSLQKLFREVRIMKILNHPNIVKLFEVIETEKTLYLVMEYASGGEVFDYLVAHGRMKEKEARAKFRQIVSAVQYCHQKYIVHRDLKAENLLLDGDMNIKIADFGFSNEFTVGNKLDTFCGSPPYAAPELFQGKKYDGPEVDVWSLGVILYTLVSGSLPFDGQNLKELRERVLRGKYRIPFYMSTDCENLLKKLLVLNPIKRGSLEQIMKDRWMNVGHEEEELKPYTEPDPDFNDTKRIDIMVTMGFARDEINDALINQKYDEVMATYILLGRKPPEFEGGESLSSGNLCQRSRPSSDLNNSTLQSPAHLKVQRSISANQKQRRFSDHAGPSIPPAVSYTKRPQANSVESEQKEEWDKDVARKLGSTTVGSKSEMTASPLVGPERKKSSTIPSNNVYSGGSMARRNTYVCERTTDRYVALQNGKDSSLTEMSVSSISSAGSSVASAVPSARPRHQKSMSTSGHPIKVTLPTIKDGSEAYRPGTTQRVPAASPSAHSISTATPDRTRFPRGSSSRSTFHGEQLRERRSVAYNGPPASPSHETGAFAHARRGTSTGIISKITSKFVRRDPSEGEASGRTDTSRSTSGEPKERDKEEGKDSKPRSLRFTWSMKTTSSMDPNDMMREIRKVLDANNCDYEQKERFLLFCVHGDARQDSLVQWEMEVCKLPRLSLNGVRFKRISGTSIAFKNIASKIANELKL
Chain of Acetylcholinesterase (Homo sapiens) (P22303 whole entry): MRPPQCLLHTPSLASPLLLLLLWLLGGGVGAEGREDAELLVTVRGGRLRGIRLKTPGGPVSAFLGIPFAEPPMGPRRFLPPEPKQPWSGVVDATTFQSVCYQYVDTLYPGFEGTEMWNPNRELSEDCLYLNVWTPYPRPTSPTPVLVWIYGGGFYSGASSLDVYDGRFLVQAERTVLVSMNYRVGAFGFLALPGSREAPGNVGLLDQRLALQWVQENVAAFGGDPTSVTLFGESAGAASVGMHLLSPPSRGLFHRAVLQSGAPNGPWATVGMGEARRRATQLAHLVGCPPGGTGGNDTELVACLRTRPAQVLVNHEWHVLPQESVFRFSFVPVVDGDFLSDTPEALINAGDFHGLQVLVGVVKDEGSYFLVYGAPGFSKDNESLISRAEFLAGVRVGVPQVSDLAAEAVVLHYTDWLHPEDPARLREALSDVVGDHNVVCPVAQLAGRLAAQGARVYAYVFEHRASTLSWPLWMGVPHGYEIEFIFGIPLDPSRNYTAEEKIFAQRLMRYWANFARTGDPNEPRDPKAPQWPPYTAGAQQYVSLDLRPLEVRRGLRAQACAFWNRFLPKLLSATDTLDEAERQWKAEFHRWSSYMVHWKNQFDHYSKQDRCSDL
Chain of Serine/threonine-protein kinase B-raf (Homo sapiens) (P15056 whole entry): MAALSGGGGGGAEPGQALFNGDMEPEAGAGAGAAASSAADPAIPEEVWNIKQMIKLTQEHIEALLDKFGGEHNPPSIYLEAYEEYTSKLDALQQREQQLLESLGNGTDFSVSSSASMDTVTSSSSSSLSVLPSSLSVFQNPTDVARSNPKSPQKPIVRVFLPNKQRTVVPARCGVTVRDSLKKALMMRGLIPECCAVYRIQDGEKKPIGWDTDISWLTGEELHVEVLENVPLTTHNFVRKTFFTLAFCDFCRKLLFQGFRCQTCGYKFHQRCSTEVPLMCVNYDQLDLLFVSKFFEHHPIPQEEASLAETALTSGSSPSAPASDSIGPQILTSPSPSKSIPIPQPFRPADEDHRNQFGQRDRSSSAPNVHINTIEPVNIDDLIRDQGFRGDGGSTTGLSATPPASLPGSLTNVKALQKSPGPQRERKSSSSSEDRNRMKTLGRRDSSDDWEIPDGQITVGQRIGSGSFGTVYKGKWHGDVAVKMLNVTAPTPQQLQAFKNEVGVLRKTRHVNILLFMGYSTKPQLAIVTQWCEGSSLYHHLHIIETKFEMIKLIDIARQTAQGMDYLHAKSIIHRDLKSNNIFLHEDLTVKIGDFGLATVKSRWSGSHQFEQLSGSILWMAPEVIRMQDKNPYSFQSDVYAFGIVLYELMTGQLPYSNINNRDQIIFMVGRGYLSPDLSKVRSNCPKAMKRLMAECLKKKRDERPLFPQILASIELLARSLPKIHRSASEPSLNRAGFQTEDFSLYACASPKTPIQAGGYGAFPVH

Take `CN(C)C(=O)Cn1cc(-c2nc(C3(c4ccc(-c5cnc(N)nc5)cc4)CC3)no2)cn1` [BI 0153]: the inhibition in data set [1] was 6.54%. Moreover, in [2], the residual activity is 100%.
As to `CN(C)C(=O)Cn1cc(-c2nc([C@@](C)(c3ccc(-c4cnc(N)nc4)cc3)C3CC3)no2)cn1` [BI 665915], the residual activity in [3] is 98%; in data set [4], 97%; in [5] it was 100%; in [6], 101%; in [7], 93%; in [8], 99%. The residual activity in [9] was 98%; in data set [10] it was 98%; in data set [11], 100%; in [12] it was 90.5%; in [13], 94.5%; in data set [14], 105%. Moreover, the residual activity in data set [15] was 102%; in data set [16], 118%; in [18], 95%; in [19] it was 36%; in data set [20], 113%; in [21], 96.5%. Besides, the residual activity in data set [22] was 70%; in data set [23] it was 99.5%; in data set [24], 112%; in [25], 95%; in data set [26], 84%; in data set [27], 95.5%. In addition, the activity at 20 µM in data set [17] is recorded as 91% (not active).
